Results taken from patent publication US7232837B2, “Stereoisomers with high affinity for adrenergic receptors” (McNeil-PPC, Inc., priority 1999, dated 2007).

Columns and labels:
Swiss-Webster mice [1] = assay: H1 receptor antagonist (triprolidine) interaction study, locomotor activity in mice; details: mice pretreated with triprolidine 20 min before the test compound
Swiss-Webster mice [2] = assay: Locomotor stimulant and depressant effects in mice; details: i.p.
[3] = test system: New Zealand white rabbits; assay: Intraocular pressure (IOP) after topical application to the rabbit eye; assay type: in vivo; details: for IOP: mean ± S.E.
[4] = test system: New Zealand white rabbits; assay: Pupil diameter / mydriasis after topical application to the rabbit eye; assay type: in vivo; details: for Pupil Diameter: mean ± S.E.
Procedure: These diastereomers were administered topically as either 1% or 2% solutions in buffered saline. Pupillary diameter and IOP were measured in all animals over a six hour time period during the day to minimize diurnal variations in IOP and pupil diameter.
The experiments were performed on adult male New Zealand white rabbits weighing 3.0–6.0 kg. All rabbits were caged individually and maintained on a 12 hr/12 hr light/dark schedule with free access to food and water. All animal procedures were in conformity with the ARVO Resolution on the Use and Care of Animals in Research. All treated rabbits had served as controls by having received a saline treatment on a different day.
Only one eye received drug treatment. The contralateral eye served as a control. Saline (or PBS) and drug treated rabbits were treated and observed simultaneously. A single dose was given at time zero and IOP and pupil diameter measured at −1.0, −0.5, 0.5, 1, 3 and 5 hrs post-treatment.
Pupil diameter was measured visually at the point of the greatest horizontal diameter with a transparent millimeter ruler. All measurements were made under the identical ambient lighting conditions.
Mean and Standard Error values were used to construct time-response and dose-response curves for the treated and contralateral eye of research rabbits. The data were analyzed statistically by an analysis of variance and a Bonferoni's test for significance. P<0.05 was the accepted level of significance.

[5] = 1% topical, drug treated eye (T), 0.5 hr
[6] = 1% topical, drug treated eye (T), 1 hr
[7] = 1% topical, drug treated eye (T), 3 hr
[8] = 1% topical, drug treated eye (T), 5 hr
[9] = 1% topical, drug treated eye (T), −1 hr (pre-treatment)
[10] = 1% topical, untreated contralateral eye (U), 0.5 hr
[11] = 1% topical, untreated contralateral eye (U), 1 hr
[12] = 1% topical, untreated contralateral eye (U), 3 hr
[13] = 1% topical, untreated contralateral eye (U), 5 hr
[14] = 1% topical, untreated contralateral eye (U), −1 hr (pre-treatment)
[15] = 2% topical, drug treated eye (T), 0.5 hr
[16] = 2% topical, drug treated eye (T), 1 hr
[17] = 2% topical, drug treated eye (T), 3 hr
[18] = 2% topical, drug treated eye (T), 5 hr
[19] = 2% topical, drug treated eye (T), −0.5 hr (pre-treatment)
[20] = 2% topical, drug treated eye (T), −1 hr (pre-treatment)
[21] = 2% topical, untreated contralateral eye (U), 0.5 hr
[22] = 2% topical, untreated contralateral eye (U), 1 hr
[23] = 2% topical, untreated contralateral eye (U), 3 hr
[24] = 2% topical, untreated contralateral eye (U), 5 hr
[25] = 2% topical, untreated contralateral eye (U), −0.5 hr (pre-treatment)
[26] = 2% topical, untreated contralateral eye (U), −1 hr (pre-treatment)

For (+)-norpseudoephedrine, the “effect of triprolidine pretreatment on stimulant or depressant effects” value (Swiss-Webster mice [1]) was “failed to show significant modification of stimulant or depressant effects”, the “Depression Time: 30-min period following injection in which the maximal depression occurred” value (Swiss-Webster mice [2]) was 10 to 40 min and the “Stimulation Time: 30-min period following injection in which the maximal stimulant effect occurred” value (Swiss-Webster mice [2]) was 30 to 60 min. The “Stimulation Potency: dose resulting in ½ the maximal stimulant effect (ID50)” value (Swiss-Webster mice [2]; — denotes absence of significant effect) was 12.2 mg/kg, the “effect on IOP (result in words)” value ([3]; 1% or 2% topical, rabbit) was “accompanying increase in IOP” and the IOP [3, 5] was 19 ± 2.4 mmHg. It also gave an IOP [3, 6] of 18 ± 1.8 mmHg, an IOP [3, 7] of 18 ± 2.0 mmHg and an IOP [3, 8] of 17 ± 2.8 mmHg. For the same substance, the IOP [3, 9] was 18 ± 1.0 mmHg, the IOP [3, 10] was 24 ± 1.8 mmHg and the IOP [3, 11] was 19 ± 1.8 mmHg. It also gave an IOP [3, 12] of 18 ± 2.8 mmHg, an IOP [3, 13] of 17 ± 2.8 mmHg and an IOP [3, 14] of 20 ± 1.7 mmHg. It also gave an IOP [3, 15] of 18 ± 2.5 mmHg, an IOP [3, 16] of 20 ± 2.3 mmHg and an IOP [3, 17] of 20 ± 2.0 mmHg. For the same substance, the IOP [3, 18] was 21 ± 2.8 mmHg, the IOP [3, 19] was 16 ± 2.5 mmHg and the IOP [3, 20] was 19 ± 2.4 mmHg. For the same substance, the IOP [3, 21] was 22 ± 2.0 mmHg, the IOP [3, 22] was 23 ± 2.1 mmHg and the IOP [3, 23] was 22 ± 2.7 mmHg. It also gave an IOP [3, 24] of 24 ± 2.3 mmHg, an IOP [3, 25] of 19 ± 2.5 mmHg and an IOP [3, 26] of 18 ± 2.6 mmHg. For the same substance, the “mydriasis / pupil diameter (result in words)” value ([4]; 1% or 2% topical, rabbit) was “significant mydriasis”, the “Mydriatic Responses, TREATED EYE” value ([4]; 1% topical) was “++ (++ = 2–4 mm change)” and the “Mydriatic Responses, UNTREATED EYE” value ([4]; 1% topical) was “+ (+ = 0–2 mm change)”. The “Pupil Diameter” value [4, 5] was 8 ± 0.2 mm, the “Pupil Diameter” value [4, 6] was 8 ± 0.2 mm and the “Pupil Diameter” value [4, 7] was 8 ± 0.2 mm. The “Pupil Diameter” value [4, 8] was 8 ± 0.2 mm, the “Pupil Diameter” value ([4]; 1% topical, drug treated eye (T), −0.5 hr (pre-treatment)) was 6 ± 0.2 mm and the “Pupil Diameter” value [4, 9] was 6 ± 0.2 mm. The “Pupil Diameter” value [4, 10] was 8 ± 0.2 mm, the “Pupil Diameter” value [4, 11] was 8 ± 0.2 mm and the “Pupil Diameter” value [4, 12] was 8 ± 0.2 mm. The “Pupil Diameter” value [4, 13] was 8 ± 0.2 mm, the “Pupil Diameter” value ([4]; 1% topical, untreated contralateral eye (U), −0.5 hr (pre-treatment)) was 6 ± 0.2 mm and the “Pupil Diameter” value [4, 14] was 6 ± 0.2 mm. For the same substance, the “Mydriatic Responses, TREATED EYE” value ([4]; 2% topical) was “++ (++ = 2–4 mm change)”, the “Mydriatic Responses, UNTREATED EYE” value ([4]; 2% topical) was “++ (++ = 2–4 mm change)” and the “Pupil Diameter” value [4, 15] was 9 ± 0.2 mm. For the same substance, the “Pupil Diameter” value [4, 16] was 9 ± 0.2 mm, the “Pupil Diameter” value [4, 17] was 9 ± 0.2 mm and the “Pupil Diameter” value [4, 18] was 9 ± 0.2 mm. For the same substance, the “Pupil Diameter” value [4, 19] was 6 ± 0.2 mm, the “Pupil Diameter” value [4, 20] was 6 ± 0.2 mm and the “Pupil Diameter” value [4, 21] was 9 ± 0.2 mm. For the same substance, the “Pupil Diameter” value [4, 22] was 9 ± 0.2 mm, the “Pupil Diameter” value [4, 23] was 9 ± 0.2 mm and the “Pupil Diameter” value [4, 24] was 9 ± 0.2 mm. For the same substance, the “Pupil Diameter” value [4, 25] was 6 ± 0.2 mm and the “Pupil Diameter” value [4, 26] was 6 ± 0.2 mm.
